The source of these data is patent publication US20230144211A1, “ANTIFOLATE LINKER-DRUGS AND ANTIBODY-DRUG CONJUGATES” (Byondis B.V., priority 2020, published 2023).

What all share (assay): In vitro cell viability assay (CellTiter-Glo, 6 days)
A general note: Cellular ATP, detected with luciferase, serves as a proxy for viable cell number.

The test system of test [1] is BxPC-3 cells. The class given is cell-based. The following applies: Homo sapiens, free antifolate drugs, Table 1d. On the procedure: (§1) FaDu, BxPC-3, HeLa, MV4-11, and RAJI cell lines were obtained from Deutsche Sammlung von Mikroorganismen und Zellkulturen (Leipzig, Germany). Jurkat NucLight Red cells were obtained from Essen BioScience Inc. (Ann Arbor, Mich., USA). SK-BR-3 and SK-OV-3 cells were cultured in McCoys 5A medium (Lonza; Walkersville, Md., USA) supplemented with 10% v/w Fetal Bovine Serum (FBS), Heat-inactivated (HI) (Gibco-Life Technologies; Carlsbad, Calif.) and 80 U/mL Pen/Strep (Gibco-Life Technologies), at 37° C. in a humidified incubator under 5% CO2 atmosphere. SW-620 cells were similarly maintained in RPMI 1640 medium (Lonza), containing 10% v/w FBS HI and 80 U/mL Pen/Strep. A-549 cells were similarly maintained in F-12K Nutrient Mixture (1×) (Gibco-Life Technologies) media supplemented with 80 U/mL Pen/Strep and 5% v/w FBS, which was Qualified (Q) (Gibco-Life Technologies). BT-474 and AU-565 cells were similarly maintained in RPMI 1640 medium (Lonza), containing 10% v/w FBS, which was Qualified (Q) (Gibco-Life Technologies), and 80 U/mL Pen/Strep. […] Jurkat NucLight Red cells were similarly maintained in RPMI 1640 medium (Lonza), containing 10% v/w FBS HI, 80 U/mL Pen/Strep and 0.5 μg/mL Puromycin (Gibco-Life Technologies). FaDu cells were cultured in EMEM medium (Lonza) supplemented with 10% v/w FBS HI (Gibco-Life Technologies), 1× GlutaMAX (Gibco-Life Technologies), and 80 U/mL Pen/Strep (Gibco-Life Technologies), at 37° C. in a humidified incubator under 5% CO2 atmosphere.
(§2) After an overnight incubation, 10 serial log 10 dilutions of the free drugs were made in DMSO (Sigma-Aldrich). These free drug dose-response curves were 10-times further diluted in complete growth medium. For the ADCs according to the invention 10 serial log 10 dilutions were made in complete growth medium. 10 μL of a composition comprising a free drug or an ADC according to the invention was added to the assay plate (final DMSO content for free drugs was 1%). […] […] Percentage cell survival was calculated by dividing the measured luminescence for each free drug or ADC according to the concentration with the average mean of untreated cells (1% or 0.1% DMSO control (for free drugs) or 100% complete growth medium (for ADCs)) multiplied by 100.
(§3) Curves were fitted by non-linear regression using the sigmoidal dose-response equation with variable slope (four parameters) using curve-fitting software (GraphPad Prism, version 9.4.0 for Windows, GraphPad, San Diego, Calif. or Electronic Laboratory Notebook (ELN) add-in BioAssay, version 19.1.0.0218, Perkin Elmer, Waltham, Mass.). Relative IC50 values were calculated as the concentration that gives a response halfway between bottom and top of the curve, when using a 4-parameter logistic fit. Data were reported as mean IC50 value of at least one experiment performed in duplicate.

For test [2], the system named is FaDu cells. In kind it is cell-based. The following applies: Homo sapiens, free antifolate drugs, Table 1d. Here is the method:
as §1, §2, §3

In test [3] the test system is Jurkat NucLight Red cells. The class given is cell-based, human. Conditions: Homo sapiens, Jurkat, free antifolate drugs. Put shortly: (§4)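 Cells plated overnight, then given 10 serial log10 dilutions of free drug (1% final DMSO) or ADC in medium. After 6 days, CellTiter-Glo luminescence expressed as % of untreated control. IC50 taken as the midpoint of a 4-parameter logistic fit; mean of at least one experiment in duplicate.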

Test [4] has as its system SK-BR-3 cells. The class given is cell-based, human. Conditions: Homo sapiens. The essentials: as §4
Test [5] deals with AU-565 cells. In kind it is cell-based, human. Conditions: Homo sapiens, AU565, free antifolate drugs, Table 1c. The essentials:
as §4

Test [6] deals with RAJI cells. The class given is cell-based. The following applies: Homo sapiens, free antifolate drugs, Table 1d. Here is the method:
(§5) Human tumor cell lines SK-BR-3, SW-620, A-549, BT-474, Jurkat Clone E6-1, AU-565, and SK-OV-3 were obtained from American Type Culture Collection (Rockville, Md., USA). FaDu, BxPC-3, HeLa, MV4-11, and RAJI cell lines were obtained from Deutsche Sammlung von Mikroorganismen und Zellkulturen (Leipzig, Germany). Jurkat NucLight Red cells were obtained from Essen BioScience Inc. (Ann Arbor, Mich., USA). SK-BR-3 and SK-OV-3 cells were cultured in McCoys 5A medium (Lonza; Walkersville, Md., USA) supplemented with 10% v/w Fetal Bovine Serum (FBS), Heat-inactivated (HI) (Gibco-Life Technologies; Carlsbad, Calif.) and 80 U/mL Pen/Strep (Gibco-Life Technologies), at 37° C. in a humidified incubator under 5% CO2 atmosphere. SW-620 cells were similarly maintained in RPMI 1640 medium (Lonza), containing 10% v/w FBS HI and 80 U/mL Pen/Strep. A-549 cells were similarly maintained in F-12K Nutrient Mixture (1×) (Gibco-Life Technologies) media supplemented with 80 U/mL Pen/Strep and 5% v/w FBS, which was Qualified (Q) (Gibco-Life Technologies). BT-474 and AU-565 cells were similarly maintained in RPMI 1640 medium (Lonza), containing 10% v/w FBS, which was Qualified (Q) (Gibco-Life Technologies), and 80 U/mL Pen/Strep. Jurkat Clone E6-1, BxPC-3, HeLa, MV4-11, and RAJI cells were similarly maintained in RPMI 1640 medium (Lonza), containing 10% v/w FBS HI and 80 U/mL Pen/Strep. Jurkat NucLight Red cells were similarly maintained in RPMI 1640 medium (Lonza), containing 10% v/w FBS HI, 80 U/mL Pen/Strep and 0.5 μg/mL Puromycin (Gibco-Life Technologies). FaDu cells were cultured in EMEM medium (Lonza) supplemented with 10% v/w FBS HI (Gibco-Life Technologies), 1× GlutaMAX (Gibco-Life Technologies), and 80 U/mL Pen/Strep (Gibco-Life Technologies), at 37° C. in a humidified incubator under 5% CO2 atmosphere.
(§6) Cells in complete growth medium were plated in 96-well plates (90 μL/well) and incubated at 37° C., 5% CO2 at the following cell densities: 6500 SK-BR-3, 4000 SW-620, 2500 A-549, 10000 BT-474, 3000 Jurkat Clone E6-1, 5000 AU-565, 1250 FaDu, 1250 BxPC-3, 1000 HeLa, 7500 MV4-11, 1000 RAJI, 3000 Jurkat NucLight Red, and 4000 SK-OV-3 cells per well. After an overnight incubation, 10 serial log 10 dilutions of the free drugs were made in DMSO (Sigma-Aldrich). These free drug dose-response curves were 10-times further diluted in complete growth medium. For the ADCs according to the invention 10 serial log 10 dilutions were made in complete growth medium. 10 μL of a composition comprising a free drug or an ADC according to the invention was added to the assay plate (final DMSO content for free drugs was 1%). […] Cell viability was assessed after 6 days using a luminescent assay kit (CellTiter-Glo™ (CTG), Promega Corporation) according to the manufacturer's instructions. Percentage cell survival was calculated by dividing the measured luminescence for each free drug or ADC according to the concentration with the average mean of untreated cells (1% or 0.1% DMSO control (for free drugs) or 100% complete growth medium (for ADCs)) multiplied by 100.
as §3

Test [7] deals with MV4-11 cells. In kind it is cell-based. Conditions: Homo sapiens, free antifolate drugs, Table 1d. On the procedure: as §5, §6, §3
In test [8] the test system is HeLa cells. In kind it is cell-based. Conditions: Homo sapiens, free antifolate drugs, Table 1d. On the procedure:
as §5, §6, §3

Test [9] has as its system Jurkat Clone E6-1 cells. In kind it is cell-based. Conditions: Homo sapiens, free antifolate drugs, Table 1d. On the procedure: Human tumor cell lines SK-BR-3, SW-620, A-549, BT-474, Jurkat Clone E6-1, AU-565, and SK-OV-3 were obtained from American Type Culture Collection (Rockville, Md., USA). FaDu, BxPC-3, HeLa, MV4-11, and RAJI cell lines were obtained from Deutsche Sammlung von Mikroorganismen und Zellkulturen ([…], Germany). Jurkat NucLight Red cells were obtained from Essen BioScience Inc. (Ann Arbor, Mich., USA). SK-BR-3 and SK-OV-3 cells were cultured in McCoys 5A medium (Lonza; Walkersville, Md., USA) supplemented with 10% v/w Fetal Bovine Serum (FBS), Heat-inactivated (HI) (Gibco-Life Technologies; Carlsbad, Calif.) and 80 U/mL Pen/Strep (Gibco-Life Technologies), at 37° C. in a humidified incubator under 5% CO2 atmosphere. […]
Cells in complete growth medium were plated in 96-well plates (90 μL/well) and incubated at 37° C., 5% CO2 at the following cell densities: 6500 SK-BR-3, 4000 SW-620, 2500 A-549, 10000 BT-474, 3000 Jurkat Clone E6-1, 5000 AU-565, 1250 FaDu, 1250 BxPC-3, 1000 HeLa, 7500 MV4-11, 1000 RAJI, 3000 Jurkat NucLight Red, and 4000 SK-OV-3 cells per well. […] Percentage cell survival was calculated by dividing the measured luminescence for each free drug or ADC according to the concentration with the average mean of untreated cells (1% or 0.1% DMSO control (for free drugs) or 100% complete growth medium (for ADCs)) multiplied by 100. […]

Setting [10] is: SK-BR-3, 24 h, free antifolate drugs, Table 1d.

As to `Nc1ccc(C(=O)NCCC[C@H](NC(=O)c2ccc(CCc3ccc4nc(N)nc(N)c4c3Cl)cc2)C(=O)O)c(-c2nnn[nH]2)c1` [XT123, (S)-5-(4-amino-2-(1H-tetrazol-5-yl)benzamido)-2-(4-(2-(2,4-diamino-5-chloroquinazolin-6-yl)ethyl)benzamido)pentanoic acid], the IC50 amounted to 0.71 nM in test [1]; 0.19 nM in [2]; 0.79 nM in test [3] (24 h, Table 1d); 0.6 nM in [3] (Table 1c); 0.63 nM in [4] (setting [10]); 0.44 nM in test [4] (SK-BR-3, free antifolate drugs, Table 1c). Besides, the concentration for half-maximal inhibition (IC50) in test [5] amounted to 0.35 nM; in test [6], 0.6 nM; in test [7], 0.62 nM; in [8] it was 0.11 nM.

As for `Nc1ccc(C(=O)NCCC[C@H](NC(=O)c2ccc(CCc3cnc4nc(N)nc(N)c4n3)cc2O)C(=O)O)c(-c2nnn[nH]2)c1` [XT162, (S)-5-(4-Amino-2-(1H-tetrazol-5-yl)benzamido)-2-(4-(2-(2,4-diaminopteridin-6-yl)ethyl)-2-hydroxybenzamido)pentanoic acid], the IC50 in test [1] amounted to 0.78 nM; in test [2] it was 0.44 nM; in test [9] it was 0.78 nM; in test [3] (24 h, Table 1d) it was 0.66 nM; in [4] (setting [10]) it was 0.86 nM.

Usually IC50 stands for the concentration that inhibits the measured activity by half.
